# Molecular target: PI3K isoform δ (Homo sapiens (Human), UniProt O00329)
# Experiment: TR-FRET assay of enzymatic activity of class I PI3K isoforms
# Details: read-out: IC50 (nM) for PI3K isoform δ (Table 3); TR-FRET; 2× Km ATP, 2 μM PIP2; incubated for 30 minutes at 25° C.
# From the text: TR-FRET monitored the formation of 3,4,5-inositol triphosphate molecule that competed with fluorescently labeled PIP3 for binding to the GRP-1 pleckstrin homology domain protein. […] Class I PI3K isoforms were expressed and purified as heterodimeric recombinant proteins. All assay reagents and buffers for the TR-FRET assay were purchased from Millipore.
# Sequence of PI3K isoform δ (O00329 whole entry, canonical isoform): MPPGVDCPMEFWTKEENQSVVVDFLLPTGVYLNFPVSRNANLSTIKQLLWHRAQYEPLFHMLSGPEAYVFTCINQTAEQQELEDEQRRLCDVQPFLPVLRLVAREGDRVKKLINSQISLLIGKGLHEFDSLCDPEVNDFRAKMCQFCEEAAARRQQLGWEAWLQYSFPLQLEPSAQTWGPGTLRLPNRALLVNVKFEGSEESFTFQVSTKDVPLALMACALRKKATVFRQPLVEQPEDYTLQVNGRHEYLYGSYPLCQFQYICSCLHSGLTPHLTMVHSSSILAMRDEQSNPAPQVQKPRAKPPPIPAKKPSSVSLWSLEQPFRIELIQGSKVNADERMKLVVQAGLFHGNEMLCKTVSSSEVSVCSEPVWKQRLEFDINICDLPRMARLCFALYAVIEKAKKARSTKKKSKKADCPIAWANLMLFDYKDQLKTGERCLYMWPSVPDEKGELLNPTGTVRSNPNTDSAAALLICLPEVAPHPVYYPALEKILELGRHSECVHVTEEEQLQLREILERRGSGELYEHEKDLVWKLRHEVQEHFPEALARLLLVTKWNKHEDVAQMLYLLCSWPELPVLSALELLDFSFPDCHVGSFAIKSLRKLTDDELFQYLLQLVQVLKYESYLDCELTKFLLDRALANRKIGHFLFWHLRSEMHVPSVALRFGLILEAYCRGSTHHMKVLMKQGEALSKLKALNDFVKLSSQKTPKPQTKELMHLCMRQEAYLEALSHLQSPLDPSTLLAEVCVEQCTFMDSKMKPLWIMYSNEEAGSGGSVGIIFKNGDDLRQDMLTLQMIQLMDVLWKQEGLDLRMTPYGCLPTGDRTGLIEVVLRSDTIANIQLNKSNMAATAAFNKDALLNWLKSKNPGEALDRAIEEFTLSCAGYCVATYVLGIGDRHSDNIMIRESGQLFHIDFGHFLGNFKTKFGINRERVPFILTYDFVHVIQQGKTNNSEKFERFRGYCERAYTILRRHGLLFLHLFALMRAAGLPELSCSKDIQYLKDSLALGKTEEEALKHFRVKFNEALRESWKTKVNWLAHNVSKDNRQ
# Sequence of PI3K isoform δ (P27986 whole entry partner, canonical isoform): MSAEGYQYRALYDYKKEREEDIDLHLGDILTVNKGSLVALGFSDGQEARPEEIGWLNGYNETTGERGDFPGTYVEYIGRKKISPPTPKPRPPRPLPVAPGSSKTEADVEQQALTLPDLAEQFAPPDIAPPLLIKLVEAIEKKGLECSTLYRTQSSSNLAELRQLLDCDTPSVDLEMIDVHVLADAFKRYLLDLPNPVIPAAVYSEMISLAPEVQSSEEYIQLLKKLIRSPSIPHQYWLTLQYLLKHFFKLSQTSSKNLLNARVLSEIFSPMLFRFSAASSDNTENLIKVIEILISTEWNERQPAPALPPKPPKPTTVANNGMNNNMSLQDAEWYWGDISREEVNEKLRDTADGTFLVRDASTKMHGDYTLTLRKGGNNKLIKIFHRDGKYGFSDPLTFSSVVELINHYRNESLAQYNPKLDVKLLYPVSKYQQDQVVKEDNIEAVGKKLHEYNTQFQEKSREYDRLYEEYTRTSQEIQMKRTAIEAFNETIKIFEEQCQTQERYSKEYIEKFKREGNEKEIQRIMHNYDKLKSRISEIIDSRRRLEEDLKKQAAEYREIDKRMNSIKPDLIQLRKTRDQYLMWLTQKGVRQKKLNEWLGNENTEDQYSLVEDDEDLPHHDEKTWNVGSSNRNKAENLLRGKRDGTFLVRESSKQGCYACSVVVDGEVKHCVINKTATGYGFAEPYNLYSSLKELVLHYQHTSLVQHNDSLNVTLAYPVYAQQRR
row,SMILES,IC50 [nM]
1,"C[C@H](Nc1nc(N)nc(N)c1C#N)c1nc2cccc(CCC(N)=O)c2c(=O)n1-c1cc(F)cc(F)c1 [Compound 40, (S)-3-(2-(1-((2,6-diamino-5-cyanopyrimidin-4-yl)amino)ethyl)-3-(3,5-difluorophenyl)-4-oxo-3,4-dihydroquinazoline-5-yl)propanamide]",4
2,"C[C@H](Nc1nc(N)nc(N)c1Cl)c1nc2c(F)ccc(CCC(N)=O)c2c(=O)n1-c1cc(F)cc(F)c1 [Compound 41, (S)-3-(2-(1-((2,6-diamino-5-chloropyrimidin-4-yl)amino)ethyl)-3-(3,5-difluorophenyl)-8-fluoro-4-oxo-3,4-dihydroquinazoline-5-yl)propanamide]",25
3,"C[C@H](Nc1nc(N)nc(N)c1Cl)c1nc2cccc(CCC(N)=O)c2c(=O)n1-c1cc(F)cc(F)c1 [Compound 42, (S)-3-(2-(1-((2,6-diamino-5-chloropyrimidin-4-yl)amino)ethyl)-3-(3,5-difluorophenyl)-4-oxo-3,4-dihydroquinazoline-5-yl)propanamide]",20
4,"C[C@H](Nc1nc(N)nc(N)c1Cl)c1nc2cccc(CCC(N)=O)c2c(=O)n1-c1ccccc1 [Compound 43, (S)-3-(2-(1-((2,6-diamino-5-chloropyrimidin-4-yl)amino)ethyl)-4-oxo-3-phenyl-3,4-dihydroquinazoline-5-yl)propanamide]",9
5,"CC(Cc1cccc2nc([C@H](C)Nc3nc(N)nc(N)c3C#N)n(-c3ccccc3)c(=O)c12)N1CCCC1 (stereo partly drawn) [Compound 45, (S)-2,4-diamino-6-((1-(4-oxo-3-phenyl-5-(2-(pyrrolidin-1-yl)propyl)-3,4-dihydroquinazolin-2-yl)ethyl)amino)pyrimidine-5-carbonitrile]",0.7
6,"CC1COCC(C)N1CCCc1cccc2nc([C@H](C)Nc3nc(N)nc(N)c3C#N)n(-c3ccccc3)c(=O)c12 (stereo partly drawn) [Compound 49, 2,4-diamino-6-(((1S)-1-(5-(3-(3,5-dimethylmorpholino)propyl)-4-oxo-3-phenyl-3,4-dihydroquinazolin-2-yl)ethyl)amino)pyrimidine-5-carbonitrile]",1.4
7,"C[C@H](Nc1nc(N)nc(N)c1C#N)c1nc2c(F)ccc(CCCN3CCCC3)c2c(=O)n1-c1ccccc1 [Compound 50, (S)-2,4-diamino-6-((1-(8-fluoro-4-oxo-3-phenyl-5-(3-(pyrrolidin-1-yl)propyl)-3,4-dihydroquinazolin-2-yl)ethyl)amino)pyrimidine-5-carbonitrile]",1.3
8,"C[C@H](Nc1nc(N)nc(N)c1C#N)c1nc2cccc(CCCN3CCCC3)c2c(=O)n1-c1cc(F)cc(F)c1 [Compound 51, (S)-2,4-diamino-6-((1-(3-(3,5-difluorophenyl)-4-oxo-5-(3-(pyrrolidin-1-yl)propyl)-3,4-dihydroquinazolin-2-yl)ethyl)amino)pyrimidine-5-carbonitrile]",3
9,"C[C@H](Nc1nc(N)nc(N)c1C#N)c1nc2c(F)ccc(CCCN3CCC(F)(F)C3)c2c(=O)n1-c1ccccc1 [Compound 55, (S)-2,4-diamino-6-((1-(5-(3-(3,3-difluoropyrrolidin-1-yl)propyl)-8-fluoro-4-oxo-3-phenyl-3,4-dihydroquinazolin-2-yl)ethyl)amino)pyrimidine-5-carbonitrile]",0.4
10,"N#Cc1c(N)nc(N)nc1N[C@H](c1nc2c(F)ccc(CCCN3CCCC3)c2c(=O)n1-c1ccccc1)C1CC1 [Compound 58, (S)-2,4-diamino-6-((cyclopropyl(8-fluoro-4-oxo-3-phenyl-5-(3-(pyrrolidin-1-yl)propyl)-3,4-dihydroquinazolin-2-yl)methyl)amino)pyrimidine-5-carbonitrile]",3
11,"N#Cc1c(N)nc(N)nc1N[C@H](c1nc2c(F)ccc(CCCN3CCCCC3)c2c(=O)n1-c1ccccc1)C1CC1 [Compound 59, (S)-2,4-diamino-6-((cyclopropyl(8-fluoro-4-oxo-3-phenyl-5-(3-(piperidin-1-yl)propyl)-3,4-dihydroquinazolin-2-yl)methyl)amino)pyrimidine-5-carbonitrile]",2
12,"N#Cc1c(Cl)nc(N)nc1N[C@H](c1nc2cccc(CCCN3CCCC3)c2c(=O)n1-c1ccccc1)C1CC1 [Compound 60, (S)-2-amino-4-chloro-6-((cyclopropyl(4-oxo-3-phenyl-5-(3-(pyrrolidin-1-yl)propyl)-3,4-dihydroquinazolin-2-yl)methyl)amino)pyrimidine-5-carbonitrile]",6
13,"C[C@H](Nc1nc(N)nc(N)c1C#N)c1nc2cccc(CCCC3CCCCC3)c2c(=O)n1-c1ccccc1 [Compound 65, (S)-2,4-diamino-6-((1-(5-(3-cyclohexylpropyl)-4-oxo-3-phenyl-3,4-dihydroquinazolin-2-yl)ethyl)amino)pyrimidine-5-carbonitrile]",15
14,"C[C@H](Nc1nc(N)nc(Cl)c1C#N)c1nc2c(F)ccc(Cl)c2c(=O)n1-c1ccccc1 [Compound 66, (S)-2-amino-4-chloro-6-((1-(5-chloro-8-fluoro-4-oxo-3-phenyl-3,4-dihydroquinazolin-2-yl)ethyl)amino)pyrimidine-5-carbonitrile]",0.7
15,"N#Cc1c(N)nc(N)nc1N1CC[C@H]1c1nc2cccc(Cl)c2c(=O)n1-c1cc(F)cc(F)c1 [Compound 67, (S)-2,4-diamino-6-(2-(5-chloro-3-(3,5-difluorophenyl)-4-oxo-3,4-dihydroquinazolin-2-yl)azetidin-1-yl)pyrimidine-5-carbonitrile]",110
16,"N#Cc1c(N)nc(N)nc1N1CC[C@H]1c1nc2cccc(Cl)c2c(=O)n1-c1ccccc1 [Compound 68, (S)-2,4-diamino-6-(2-(5-chloro-4-oxo-3-phenyl-3,4-dihydroquinazolin-2-yl)azetidin-1-yl)pyrimidine-5-carbonitrile]",30
17,"C[C@H](Nc1nc(N)nc(N)c1C#N)c1nc2cccc(CCCC(=O)O)c2c(=O)n1-c1ccccc1 [Compound 69, (S)-4-(2-(1-((2,6-diamino-5-cyanopyrimidin-4-yl)amino)ethyl)-4-oxo-3-phenyl-3,4-dihydroquinazolin-5-yl)butanoic acid]",1

# More lines, now with the values ahead:
row,IC50 [nM],SMILES
1,0.4,"C[C@H](Nc1nc(N)nc(N)c1C#N)c1nc2cccc(CCCN3CCCCC3)c2c(=O)n1-c1ccccc1 [Compound 46, (S)-2,4-diamino-6-((1-(4-oxo-3-phenyl-5-(3-(piperidin-1-yl)propyl)-3,4-dihydroquinazolin-2-yl)ethyl)amino)pyrimidine-5-carbonitrile]"
2,2,"C[C@H](Nc1nc(N)nc(N)c1C#N)c1nc2cccc(CCCN3CCC(F)(F)C3)c2c(=O)n1-c1ccccc1 [Compound 47, (S)-2,4-diamino-6-((1-(5-(3-(3,3-difluoropyrrolidin-1-yl)propyl)-4-oxo-3-phenyl-3,4-dihydroquinazolin-2-yl)ethyl)amino)pyrimidine-5-carbonitrile]"
3,0.5,"C[C@H](Nc1nc(N)nc(N)c1C#N)c1nc2cccc(CCCN3CCC(F)(F)CC3)c2c(=O)n1-c1ccccc1 [Compound 48, (S)-2,4-diamino-6-((1-(5-(3-(4,4-difluoropiperidin-1-yl)propyl)-4-oxo-3-phenyl-3,4-dihydroquinazolin-2-yl)ethyl)amino)pyrimidine-5-carbonitrile]"
4,0.7,"C[C@H](Nc1nc(N)nc(N)c1C#N)c1nc2cccc(CCCN3CCOC(C)(C)C3)c2c(=O)n1-c1ccccc1 [Compound 52, (S)-2,4-diamino-6-((1-(5-(3-(2,2-dimethylmorpholino)propyl)-4-oxo-3-phenyl-3,4-dihydroquinazolin-2-yl)ethyl)amino)pyrimidine-5-carbonitrile]"
5,0.7,"C[C@H](Nc1nc(N)nc(N)c1C#N)c1nc2cccc(CCCN3CCOCC3(C)C)c2c(=O)n1-c1ccccc1 [Compound 53, (S)-2,4-diamino-6-((1-(5-(3-(3,3-dimethylmorpholino)propyl)-4-oxo-3-phenyl-3,4-dihydroquinazolin-2-yl)ethyl)amino)pyrimidine-5-carbonitrile]"
6,0.5,"C[C@H](Nc1nc(N)nc(N)c1C#N)c1nc2cccc(CCCN3CC(F)(F)OC(F)(F)C3)c2c(=O)n1-c1ccccc1 [Compound 54, (S)-2,4-diamino-6-((1-(4-oxo-3-phenyl-5-(3-(2,2,6,6-tetrafluoromorpholino)propyl)-3,4-dihydroquinazolin-2-yl)ethyl)amino)pyrimidine-5-carbonitrile]"
7,3,"N#Cc1c(N)nc(N)nc1N[C@H](c1nc2cccc(CCCN3CCCC3)c2c(=O)n1-c1ccccc1)C1CC1 [Compound 56, (S)-2,4-diamino-6-((cyclopropyl(4-oxo-3-phenyl-5-(3-(pyrrolidin-1-yl)propyl)-3,4-dihydroquinazolin-2-yl)methyl)amino)pyrimidine-5-carbonitrile]"
8,1.4,"N#Cc1c(N)nc(N)nc1N[C@H](c1nc2cccc(CCCN3CCCCC3)c2c(=O)n1-c1ccccc1)C1CC1 [Compound 57, (S)-2,4-diamino-6-((cyclopropyl(4-oxo-3-phenyl-5-(3-(piperidin-1-yl)propyl)-3,4-dihydroquinazolin-2-yl)methyl)amino)pyrimidine-5-carbonitrile]"
9,0.8,"C[C@H](Nc1nc(N)nc(N)c1C#N)c1nc2cccc(CCCN3CC4(COC4)C3)c2c(=O)n1-c1ccccc1 [Compound 62, (S)-4-((1-(5-(3-(2-oxa-6-azaspiro[3.3]heptan-6-yl)propyl)-4-oxo-3-phenyl-3,4-dihydroquinazolin-2-yl)ethyl)amino)-2,6-diaminopyrimidine-5-carbonitrile]"
10,0.8,"C[C@H](Nc1nc(N)nc(N)c1C#N)c1nc2cccc(CCCN3CCC4(COC4)C3)c2c(=O)n1-c1ccccc1 [Compound 63, (S)-4-((1-(5-(3-(2-oxa-6-azaspiro[3.4]octan-6-yl)propyl)-4-oxo-3-phenyl-3,4-dihydroquinazolin-2-yl)ethyl)amino)-2,6-diaminopyrimidine-5-carbonitrile]"
11,30,"C[C@H](Nc1nc(N)nc(N)c1C#N)c1nc2cccc(CCCN3CCC4(CC3)COC4)c2c(=O)n1-c1ccccc1 [Compound 64, (S)-4-((1-(5-(3-(2-oxa-7-azaspiro[3.5]nonan-7-yl)propyl)-4-oxo-3-phenyl-3,4-dihydroquinazolin-2-yl)ethyl)amino)-2,6-diaminopyrimidine-5-carbonitrile]"
